Test results taken from patent US20050256093A1, “Branched polyamine steroid derivatives” (Leo Pharma, priority 2002, published 2005).
≈ marks a conversion by molar mass, not a printed value.

How the values were obtained:
Type in all cases: cell-based
[1] = test system: S. pyogenes; test: Minimum Bactericidal Concentration (MBC), broth culture and colony count; details: streptococci, TH broth, anaerobic; concentration twice that of MIC; FIG. 2
Description: (§1) 10^6 bacteria were inoculated in 3 ml growth media (S. aureus—LB broth, S. pyogenes—TH broth) containing approximately 2×MIC, 1×MIC, 0.5×MIC and O×MIC respectively of compound 102 (MIC being relative to the strain being tested). S. aureus strains were grown aerobically, and S. pyogenes anaerobically in a carbon dioxide enriched incubator. Samples were diluted and plated on LA-plates (S. aureus) or blood-agar plates (S. pyogenes) followed by 24 hours incubation at 37° C. before being scored for colonies.

[2] = test system: S. aureus; test: as above; details: staphylococci, LB broth, aerobic; concentration twice that of MIC; FIG. 1
Description: as §1

[3] = test system: Candida albicans ZA; test: agar cup assay MIC
Source text: (§2) In vitro investigations have shown a significant potency of the compounds of the invention against a large number of bacteria including gram-positive and gram-negative strains (Staphyiococci, Streptococci, Corynebacteriae, Mycobacteriae, Proteus, Propionibacterium, Pseudomonas, Neisseriae, E. coli) and fungal strains (Candida and Aspergillus). […] In addition, the studies of post-antibiotic effects point towards a strong bactericidal effect of the compounds of the invention. […] Minimum Inhibitory Concentrations were estimated using an agar cup assay. Bacterial strains were obtained from the American Type Culture Collection or from our own collection of clinical isolates. Colonies from fresh overnight culture were resuspended in saline water to 0.5 MacFarland corresponding to 10^8 CFU/ml. 200 ml Mueller Hinton agar (Oxoid) at 48° C. was inoculated at a concentration of 10^6 CFU/ml and poured into square petri dishes (245×245 mm). Holes were made in the inoculated plates and 200 μl of the compounds to be tested were disposed into each hole. A dilution series of compounds contained six dilution between 0.25 and 125 μg/ml. For Streptococci Mueller Hinton agar was supplemented with 5% sheep blood. Plates were appropriately incubated and zone diameters of growth inhibition were measured using an electronic caliper. MICs were estimated using a linear regression curve between the zone diameter of growth inhibition and the log2 of the sample concentration. The microbiological assay set up is in agreement with the European Pharmacopoeia 3rd edition (1997). The inhibition zones are function of the concentration of the compounds used. Known antibiotics including fusidic acid (FA), mupirocin and linezolid were used as reference compounds.

[4] = test system: Streptococcus faecium EI19; test: agar cup assay MIC; details: Enterococcus faecium; Streptococcus faecium EI19 (Penicillin resistant); agar with 5% sheep blood
Source text: as §2

[5] = test system: S. aureus CJ234F; test: agar cup assay MIC; details: Staphylococcus aureus; S. aureus CJ234F (MRSA, Fus. resistant)
Source text: as §2

[6] = test system: Streptococcus pyogenes EC88; test: agar cup assay MIC; details: agar with 5% sheep blood
Source text: as §2

[7] = test system: E. coli HA165; test: agar cup assay MIC; details: Escherichia coli
Source text: as §2

[8] = test system: Corynebacterium xerosis FF; test: agar cup assay MIC
Source text: as §2

[9] = test system: S. aureus CJ247; test: agar cup assay MIC; details: Staphylococcus aureus
Source text: as §2

[10] = test system: S. aureus N6; test: agar cup assay MIC; details: Staphylococcus aureus; S. aureus N6 (Fus. resistant)
Source text: as §2

[11] = test system: Propionibacterium acnes FN33; test: agar cup assay MIC; details: Cutibacterium acnes
Source text: as §2

[12] = test system: Asbergillus niger ZM35; test: agar cup assay MIC; details: Aspergillus niger
Source text: as §2

[13] = test system: Saccaromyces cervisiae ZZ7; test: agar cup assay MIC; details: Saccharomyces cerevisiae
Source text: as §2

[14] = test system: Pseudomonas aeruginosa BA17; test: agar cup assay MIC
Source text: as §2

[15] = test system: S. aureus CJ234R; test: agar cup assay MIC; details: Staphylococcus aureus; S. aureus CJ234R (MRSA, Rifampicin resistant)
Source text: as §2

[16] = test system: S. epidermis CK5; test: agar cup assay MIC; details: Staphylococcus epidermidis
Source text: as §2

[17] = test system: S. aureus CJ200; test: agar cup assay MIC; details: Staphylococcus aureus
Source text: as §2

SMILES | bactericidal impact (MBC) [1] | bactericidal impact (MBC) [2] | MIC [3] | MIC [4] | MIC [5] | MIC [6] | MIC [7] | MIC [8] | MIC [9] | MIC [10] | MIC [11] | MIC [12] | MIC [13] | MIC [14] | MIC [15] | MIC [16] | MIC [17]
CC(=O)O[C@H]1C[C@@]2(C)C(CCC3[C@@]4(C)CC[C@@H](O)[C@@H](C)C4CC[C@@]32C)[C@@H]1[C@H](CCCC(C)C)C(=O)NCCN(CCN)CCN (stereo partly drawn) [Compound 102, 21-N-{2′-[bis(2′-aminoethyl)amino]ethyl}-11-desoxy-17R,20S,24,25-tetrahydrofusid-21-amide] | strong bacterial killing | strong bacterial killing | 4 µg/mL (≈ 6.32 µM) | 16 µg/mL (≈ 25.3 µM) | 4 µg/mL (≈ 6.32 µM) | 16 µg/mL (≈ 25.3 µM) | 16 µg/mL (≈ 25.3 µM) | 4 µg/mL (≈ 6.32 µM) | 4 µg/mL (≈ 6.32 µM) | 4 µg/mL (≈ 6.32 µM) | 4 µg/mL (≈ 6.32 µM) | 4 µg/mL (≈ 6.32 µM) | 16 µg/mL (≈ 25.3 µM) | 16 µg/mL (≈ 25.3 µM) | 4 µg/mL (≈ 6.32 µM) | 4 µg/mL (≈ 6.32 µM) | 4 µg/mL (≈ 6.32 µM)
C[C@H](CCC(=O)NCCN(CCN)CCN)[C@H]1CC[C@H]2[C@@H]3CC[C@@H]4C[C@H](O)CC[C@]4(C)[C@H]3[C@H](O)C[C@]12C [Compound 107] | – | – | 16 µg/mL (≈ 30.7 µM) | 16 µg/mL (≈ 30.7 µM) | 16 µg/mL (≈ 30.7 µM) | 16 µg/mL (≈ 30.7 µM) | 16 µg/mL (≈ 30.7 µM) | 16 µg/mL (≈ 30.7 µM) | 16 µg/mL (≈ 30.7 µM) | 16 µg/mL (≈ 30.7 µM) | 16 µg/mL (≈ 30.7 µM) | 16 µg/mL (≈ 30.7 µM) | 4 µg/mL (≈ 7.68 µM) | 16 µg/mL (≈ 30.7 µM) | 16 µg/mL (≈ 30.7 µM) | 16 µg/mL (≈ 30.7 µM) | 16 µg/mL (≈ 30.7 µM)
